From patent publication US20140161891A1, “COMPOSITION OF PI3K INHIBITOR AND USE THEREOF” (priority 2012, published 2014)

Experiments:
[1] = tested on: H157 (PI3KCA, PTEN null) lung cancer cell strain; experiment: MTT cell activity test; assay type: cell-based; conditions: H157, higher dosage, 48 hours
Text: To measure the ionized LY, PLAG nanoparticles (SF-NPs), and SF-LY NPs, PLGA NPs are applied to four selected types of lung cancer cell strains including AS2 (PTEN null), H157 (PI3KCA, PTEN null), H460 (PI3KCA) and H1650 (PTEN null) in this preferred embodiment, and different concentrations are used to process the ionized LY or SF-LY NPs and a MTT testing method is used to measure the cell activity, and the experiment procedure is described in details as follows: The cells are inoculated in 96-hole culture boards (each hole has 5×10^3 cells) and cultured by 5% of CO2 at 37[…] till the next day. In four types of different cells, different doses of SF NPs, LY or SF-LY NPs are added and processed for 48 hours, and then a stock solution (with a content of 5 mg/ml in PBS) of a MTT agent at 37° C. is added to the 96-hole culture boards containing different processing drugs and wait for 4 fours before centrifuging the culture boards at 1200 rpm for 5 minutes, and after adding DMSO (capable of dissolving and precipitating products produced by the reaction of MTT and cells) for 5 minutes, the suspension is moved to a new ELISA board, and an ELISA reader (Varioskan, Thermo Electron) is used to measure the light absorption by 490 nm.

[2] = tested on: four types of lung cancer cell strains (AS2, H157, H460, H1650); experiment: MTT cell activity test, four cell strains together; assay type: cell-based; conditions: 48 hours
Text: To measure the ionized LY, PLAG nanoparticles (SF-NPs), and SF-LY NPs, PLGA NPs are applied to four selected types of lung cancer cell strains including AS2 (PTEN null), H157 (PI3KCA, PTEN null), H460 (PI3KCA) and H1650 (PTEN null) in this preferred embodiment, and different concentrations are used to process the ionized LY or SF-LY NPs and a MTT testing method is used to measure the cell activity, and the experiment procedure is described in details as follows:
The cells are inoculated in 96-hole culture boards (each hole has 5×10^3 cells) and cultured by 5% of CO2 at 37[…] till the next day. In four types of different cells, different doses of SF NPs, LY or SF-LY NPs are added and processed for 48 hours, and then a stock solution (with a content of 5 mg/ml in PBS) of a MTT agent at 37° C. is added to the 96-hole culture boards containing different processing drugs and wait for 4 fours before centrifuging the culture boards at 1200 rpm for 5 minutes, and after adding DMSO (capable of dissolving and precipitating products produced by the reaction of MTT and cells) for 5 minutes, the suspension is moved to a new ELISA board, and an ELISA reader (Varioskan, Thermo Electron) is used to measure the light absorption by 490 nm. […]

PC14PE6/AS2 cells tumor = experiment: AS2 tumor model in nude mice, injection in the tumor; assay type: in vivo, Balb/c female nude mice; conditions: 1 mg/kg, injected in the tumor three times a week for two weeks
Protocol: Balb/c female nude mice were obtained from National Laboratory Animal Center, Taiwan. Mice of 6˜8 weeks old are used. The mice are randomly divided into four groups, and situated in the same environment with controlled tempeature, humidity and 12 h-light/dark cycle, and the controlled environmental conditions follows the environmental conditions for animal breeding set forth by National Cheng Kung University. The balb/c immunodeficient mice are innoculated with PC14PE6/AS2 cells (1×10^6 cells/1004 of PBS) by the subcutaneous inoculation method. If the tumor size is approximately equal to 50-60 cubic millimeters, the experiment starts taking place. […] The tumor size is measured by a caliper and a standard tumor volume measurement method (Volume=Long Axis×Short Axis^2×0.5). […]
After the procedure as shown in FIG. 5 takes place, the body weight of the mice is measured in every two other days to check whether there is a loss of weight. […] The survival rate is determined by the number of days when a natural death of each group of mice occurs or the tumor reaches a size of 4000 mm^3.

SMILES: O=c1cc(N2CCOCC2)oc2c(-c3ccccc3)cccc12 [LY294002, 2-(4-Morpholinyl)-8-phenyl-4H-1-benzopyran-4-one]
- toxicity to H157 cells [1]: slight toxicity
- toxicity of the cells [2]: slight toxicity
- growth of tumors (PC14PE6/AS2 cells tumor): insufficient to reduce the growth of tumors
- tumor size increase relative to start (PC14PE6/AS2 cells tumor; after 12˜14 days): approximately 40 times
